Measured values from patent US20110224213A1, “Use of Glutaric Acid Derivatives or the Pharmaceutically Acceptable Salts Thereof as Anti-Arrhythmic Agents” (priority 2008, published 2011).
Like-named read-outs stand apart in the source and are kept apart here. Marks after values point to notes of the source that are not given here.

Experiments:
[1] = LD50 upon oral administration in mice; conditions: mouse, in vivo, per/os
Experimental: (§1) This model makes it possible to assess the scope of the therapeutic action of the presented compounds and the N-succinyl-D,L-tryptophane dipotassium salt. Assessment of the scope of the therapeutic action was carried out in accordance with the value of the anti-arrhythmic index (AAI), determined as the ratio LD50 upon the oral method of administering to ED50 on an aconitic model of arrhythmia.

[2] = tested on: aconitic arrhythmia in mice; experiment: animal or person; type: in vivo
Experimental: Arrhythmia was reproduced according to the method of Ju. I. Vikhlyayev and N. V. Kaverina (1958) [Kaverina N. V., Berdyaev S. Ju., Kuschuk E. P., Paskhina O. E. Methodical indications in respect to a study of the anti-arrhythmic activity of new pharmacological substances. Manual on experimental (pre-clinical) study of new pharmacological substances. Edited by V. P. Fisenko.—Moscow. 2000. Page 210]. Aconitine nitrate was administered to the animals in a dose of 50 μg/kg intravenously.
as §1

[3] = tested on: occlusive arrhythmia in cats; experiment: Early occlusive arrhythmia in cats (coronary artery ligation); conditions: for Animals died in group / Animals with ventricular arrhythmia (%) / Number of animals with ventricular arrhythmia / Time of occurrence of arrhythmia: intravenously
[4] = tested on: adrenal arrhythmia in mice; type: in vivo; conditions: mice, introduced internally

## O=C(O)CCCC(=O)N[C@@H](Cc1c[nH]cn1)C(=O)O [Compound III, N^α-glutaryl-L-histidine]
[1]
  LD50: 4500 mg/kg
[2]; Mus musculus, iv
  ED50: 0.185 ± 0.083 mg/kg
[2]; mice, administration internally
  prevention of atrioventricular heart arrhythmia caused by aconitine nitrate: effectively prevents atrioventricular heart arrhythmia
[3]; 23% lethality in the control
  effect on experimental lethality: prevented experimental lethality
[3]; dose 0.05 mg/kg
  Animals died in group: 0
  Animals with ventricular arrhythmia (%): 25%
  Number of animals with ventricular arrhythmia: 2
  Time of occurrence of arrhythmia: 18 ± 2 min
[3]; dose 0.5 mg/kg
  Animals died in group: 0
  Animals with ventricular arrhythmia (%): 17%
  Number of animals with ventricular arrhythmia: 1
  Time of occurrence of arrhythmia: 18 min
[3]; dose of 0.05 mg/kg, intravenous
  anti-arrhythmic effect: had reliable activity
[4]; 0.05 and 0.5 mg/kg
  effect on life span of the test animals: effectively increased the life span
[4]; dose 0.05 mg/kg
  Animals lethal (%): (86%)
  Animals with AV blockage (%): (29%)
  Animals with ventricular arrhythmia (%): (43%)
  Lifetime: 32 ± 7 min
  Number of animals in groups lethal: 12
  Number of animals in groups with AV blockage: 4*
  Number of animals in groups with ventricular arrhythmia: 6*
[4]; dose 0.5 mg/kg
  Animals lethal (%): (79%)
  Animals with AV blockage (%): (21%)
  Animals with ventricular arrhythmia (%): (29%)
  Lifetime: 33 ± 5 min
  Number of animals in groups lethal: 11
  Number of animals in groups with AV blockage: 3*
  Number of animals in groups with ventricular arrhythmia: 4*
